Data set [1] is described as follows: CVC plasma levels in the TG-induced model of peritonitis (LC/MS/MS). The settings on record: male, C57BL/6, mouse, oral, 20 mg/kg/day, CVC20 QD, n = 5, 26 hours post-dose, read-out: CVC trough plasma level. Type of data set: in vivo. The method, then: Male C57BL/6 mice (n = 44; 8–10 weeks of age; Charles River Laboratories, Canada) were allocated to receive treatments via oral gavage (PO) on Days 1–5 in the following groups: non-disease control, vehicle control twice daily (BID), CVC 5 mg/kg/day (CVC5) BID, CVC 20 mg/kg/day (CVC20) BID, CVC 100 mg/kg/day (CVC100) BID, CVC20 QD, and positive control dexamethasone (corticosteroid known to reduce inflammation in a variety of animal models) 1 mg/kg QD (S1 Table). On Day 4, peritonitis was induced via IP injection of TG 3.85% (1 mL/animal) 2 hours post-dose in all groups except non-disease controls. Study endpoints included: peritoneal lavage cell counts and pharmacokinetic (PK) evaluation. Animals were sacrificed 48 hours post-TG injection by isoflurane inhalation, and peritoneal lavage and blood samples (0.7 mL) were collected. Differential cell counts were assessed in peritoneal lavage samples using an Advia® Hematology System (Siemens Healthcare Diagnostics, USA) with multispecies software and an analysis software designed for mouse peritoneal fluid on Advia® 120 (LabThruPut, USA). A 0.3 mL aliquot of the blood sample was processed to plasma for PK analysis.
(§1) CVC plasma levels (minimum and maximum) were determined by KCAS Bioanalytical Services, USA, using a validated liquid chromatography-tandem mass spectrometry (LC/MS/MS) plasma method (50 μL assay, range 10.0−1920.0 ng/mL).

Data set [2] is described as follows: CVC plasma levels in the UUO model (LC/MS/MS). The settings on record: n = 8, ~4 hours post-dose (approximate Cmax), Day 5. Format: in vivo. The method, then:
Male CD-1 mice (n = 51; 7–8 weeks of age; Charles River Laboratories, USA) were allocated to weight-matched treatment groups on Day -1 (1 day prior to either sham [one group] or permanent right UUO surgery [five groups] via aseptic laparotomy). From Days -1 to 4, mice received phosphate-buffered saline (PBS) IP QD, apart from a positive-control group, which received 1D11 (anti-TGF-beta1 antibody) 3 mg/kg IP QD. From Days 0 to 5, mice received vehicle control (sham surgery, UUO-control and UUO+positive-control groups) or CVC 7 mg/kg/day (CVC7), CVC20 or CVC100 PO BID (S1 Table). The CVC100 group was terminated due to poor clinical condition (6/9 animals died and 3/9 euthanized prior to end of study). Of note, a similar dose of CVC100 administered for 3 weeks was well tolerated in the mouse NASH model; therefore, it is plausible that the laparotomy and UUO surgery in combination with CVC may have contributed to the loss of animals. […]
as §1

The subject of a further data set is CCR2. The settings on record: cited from earlier work.
The conditions of data set [3]: in rats; cited from earlier work.
Data set [4] relates to CCl4-induced liver injury. The settings on record: cited from earlier work.

Structures can show the parent of a compound that is named as a salt. Bounds are passed on as bounds.

The text below walks through data of article PMC4922569, “Antifibrotic Effects of the Dual CCR2/CCR5 Antagonist Cenicriviroc in Animal Models of Liver and Kidney Fibrosis” (PLoS ONE, 2016).

Take `CCCCOCCOc1ccc(-c2ccc3c(c2)/C=C(/C(=O)Nc2ccc([S@@+]([O-])Cc4cncn4CCC)cc2)CCCN3CC(C)C)cc1` [CVC, cenicriviroc mesylate]: the concentration at 26 h in data set [1] was found to be 25.7 ± 8.1 ng/mL. The “CVC concentration (mean±SD), plasma” value in data set [2] (CVC7 BID) came out at 251 ± 364 ng/mL; in data set [2] (CVC20 BID) it was 971 ± 507 ng/mL. Besides, the “Occupancy for CCR2 (blood and spleen) in proinflammatory monocytes” value in the data set on CCR2 (CVC 250 nM, murine cryopreserved PBMC ex vivo) is recorded as over 90%. Besides, the CCR2 occupancy in the data set with CCR2 (CVC concentrations of 250 nmol/L or higher, mouse monocytes and macrophages ex vivo) is given as over 87%. For the same compound, in data set [3], the Half-life is 4 to 5 h. For the same compound, the “Infiltration of Ly6Chi monocyte-derived macrophages into the liver” value in data set [4] (CCl4 model, preliminary data) is reported as “significantly decreased”. In addition, the Necrotic area entry in data set [4] (acute CCl4 model) is “significant reduction”.
